These results are taken from ChEMBL document CHEMBL4627271, “Design, synthesis and evaluation of new 4-arylthiazole-2-amine derivatives as acetylcholinesterase inhibitors” (Bioorg Med Chem Lett, 2020).

One experiment deals with Cholinesterase (Canis lupus familiaris, UniProt P32750). Put plainly: Inhibition of dog serum BChE using butrylthiocholine iodide as substrate by spectrophotometry based Ellman's method. (In Ellman's method for cholinesterases, released thiocholine reacts with DTNB.)
The target in experiment [1] is Acetylcholinesterase (Electrophorus electricus, UniProt O42275). In words: Inhibition of Electric eel AChE using […] as substrate by spectrophotometry based Ellman's method.
Chain of Acetylcholinesterase (Electrophorus electricus, UniProt O42275) (O42275 whole entry): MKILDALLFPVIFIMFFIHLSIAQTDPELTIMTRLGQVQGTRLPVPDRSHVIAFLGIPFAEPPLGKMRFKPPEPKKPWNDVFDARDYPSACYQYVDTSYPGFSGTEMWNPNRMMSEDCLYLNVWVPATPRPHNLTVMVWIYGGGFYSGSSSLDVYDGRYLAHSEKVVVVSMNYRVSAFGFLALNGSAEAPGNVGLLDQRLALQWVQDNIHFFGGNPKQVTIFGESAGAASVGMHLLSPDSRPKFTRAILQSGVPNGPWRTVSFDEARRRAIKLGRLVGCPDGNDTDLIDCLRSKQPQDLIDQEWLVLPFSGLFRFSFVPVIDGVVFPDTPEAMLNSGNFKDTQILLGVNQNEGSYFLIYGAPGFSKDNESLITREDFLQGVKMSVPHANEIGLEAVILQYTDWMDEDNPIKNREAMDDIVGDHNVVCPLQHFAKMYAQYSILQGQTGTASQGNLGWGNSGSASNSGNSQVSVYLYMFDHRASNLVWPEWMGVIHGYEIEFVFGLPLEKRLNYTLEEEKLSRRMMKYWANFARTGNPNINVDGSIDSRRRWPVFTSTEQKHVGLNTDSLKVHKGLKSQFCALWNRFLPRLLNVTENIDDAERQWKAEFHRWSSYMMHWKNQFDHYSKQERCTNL
For experiment [2], the target named is Acetylcholinesterase (Electrophorus electricus) (UniProt O42275). In words: Competitive inhibition of Electric eel AChE using […] as substrate by spectrophotometry based Lineweaver-Burk plot analysis.
Chain of Acetylcholinesterase (Electrophorus electricus) (O42275 24-633 limits assumed): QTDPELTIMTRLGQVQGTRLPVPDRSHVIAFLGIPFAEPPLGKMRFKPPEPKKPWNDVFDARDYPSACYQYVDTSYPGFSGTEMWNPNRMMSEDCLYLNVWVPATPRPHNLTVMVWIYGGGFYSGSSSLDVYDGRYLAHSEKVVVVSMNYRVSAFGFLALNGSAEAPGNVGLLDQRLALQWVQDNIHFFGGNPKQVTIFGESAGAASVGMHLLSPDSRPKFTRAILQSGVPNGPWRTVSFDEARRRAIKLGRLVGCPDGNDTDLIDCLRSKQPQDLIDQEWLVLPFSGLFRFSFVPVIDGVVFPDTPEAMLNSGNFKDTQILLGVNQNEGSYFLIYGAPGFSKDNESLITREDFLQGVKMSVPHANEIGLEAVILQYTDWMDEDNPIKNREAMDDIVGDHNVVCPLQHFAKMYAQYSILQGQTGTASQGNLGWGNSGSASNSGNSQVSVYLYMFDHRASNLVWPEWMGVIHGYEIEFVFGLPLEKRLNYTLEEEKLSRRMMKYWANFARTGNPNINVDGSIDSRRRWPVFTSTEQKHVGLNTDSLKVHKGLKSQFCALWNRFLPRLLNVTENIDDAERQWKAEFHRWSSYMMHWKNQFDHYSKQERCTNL
Experiment [3] in a line: Selectivity index, ratio of IC50 for dog serum BChE to IC50 for Electric eel AChE.
For experiment [4], the target named is T1, Acetylcholinesterase (Homo sapiens, UniProt P22303). In words: Inhibition of AChE (unknown origin).
T1 sequence (P22303 whole entry): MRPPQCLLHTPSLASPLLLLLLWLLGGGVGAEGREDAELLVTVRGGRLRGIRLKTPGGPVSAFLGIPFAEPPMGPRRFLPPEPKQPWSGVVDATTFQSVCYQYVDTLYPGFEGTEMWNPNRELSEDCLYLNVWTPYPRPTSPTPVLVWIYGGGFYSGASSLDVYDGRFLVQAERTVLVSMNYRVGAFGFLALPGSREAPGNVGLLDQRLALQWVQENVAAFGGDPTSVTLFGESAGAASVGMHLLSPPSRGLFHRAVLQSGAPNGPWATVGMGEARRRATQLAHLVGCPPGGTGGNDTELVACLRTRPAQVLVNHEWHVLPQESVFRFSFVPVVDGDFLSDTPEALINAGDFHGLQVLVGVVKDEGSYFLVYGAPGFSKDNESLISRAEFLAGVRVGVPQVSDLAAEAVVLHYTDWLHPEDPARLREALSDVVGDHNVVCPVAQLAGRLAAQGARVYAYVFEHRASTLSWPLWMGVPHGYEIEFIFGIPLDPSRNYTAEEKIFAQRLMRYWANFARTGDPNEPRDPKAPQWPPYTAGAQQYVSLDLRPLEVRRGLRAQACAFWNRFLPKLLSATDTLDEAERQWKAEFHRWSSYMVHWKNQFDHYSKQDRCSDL
Experiment [5] has as its target T1, Acetylcholinesterase. Put plainly: Inhibition of AChE (unknown origin) using […] as substrate incubated for 15 mins by Ellman's method.

Calls of active or inactive are those of the source. No cut-off for these calls is given here.

Chain of Cholinesterase (P32750 whole entry): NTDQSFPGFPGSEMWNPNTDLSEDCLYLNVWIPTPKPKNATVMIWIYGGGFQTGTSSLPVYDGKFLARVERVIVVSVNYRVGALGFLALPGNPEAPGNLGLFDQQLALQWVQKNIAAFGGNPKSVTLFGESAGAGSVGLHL

Broadly, the IC50 is the midpoint of a concentration-inhibition curve. High values mean weaker potency in that assay, low ones greater potency in that assay. For `COc1ccc(CC(=O)Nc2ncc(-c3ccc(OCCCN4CCCC4)cc3)s2)cc1OC`, the concentration for half-maximal inhibition (IC50) on Cholinesterase came to 6.89 µM; against Acetylcholinesterase [1], 6.51 µM.

As to `COc1ccc(C(=O)Nc2ncc(-c3ccc(OCCCN4CCCC4)cc3)s2)cc1OC`, the concentration for half-maximal inhibition (IC50) against Cholinesterase was 8.1 µM; at Acetylcholinesterase [1], 39.3 µM.

Take `COc1ccc(CC(=O)Nc2ncc(-c3ccc(OCCCCN4CCCC4)cc3)s2)cc1OC`: in experiment [2], the inhibition entry was “Active”. The IC50 on Cholinesterase is 10.2 µM; against Acetylcholinesterase [1], 0.66 µM. The Ratio IC50 in experiment [3] came to 16.

For the compound `COc1ccc(CC(=O)Nc2ncc(-c3ccc(OCCCN4CCCC4)cc3)s2)cc1`, the results for the IC50 against Cholinesterase and against Acetylcholinesterase [1] were 9.01 µM and 37.3 µM, respectively.

Regarding `COc1ccc(CC(=O)Nc2ncc(-c3ccc(OCCCCSc4ccncc4)cc3)s2)cc1OC`, the half-maximal inhibitory concentration (IC50) against Cholinesterase was 14.3 µM; on Acetylcholinesterase [1] it was 5.5 µM.

In the case of `COc1ccc(CC(=O)Nc2ncc(-c3ccc(OCCN4CCCC4)cc3)s2)cc1OC`, the concentration for half-maximal inhibition (IC50) at Cholinesterase is 23.9 µM; at Acetylcholinesterase [1], 6.31 µM.

At Acetylcholinesterase [4], `COc1ccc(-c2csc(NC(=O)CCN3CCCC3)n2)cc1` yielded an IC50 of 0.51 µM.

With `COc1cc(CC(=O)Nc2ncc(-c3ccc(OCCCN4CCCC4)cc3)s2)cc(OC)c1OC`, the concentration for half-maximal inhibition (IC50) was 17.3 µM at Cholinesterase and 7.84 µM at Acetylcholinesterase [1].

For `COc1ccc(CC(=O)Nc2ncc(-c3ccc(OCCCCN4CCN(Cc5ccccc5)CC4)cc3)s2)cc1OC`, the IC50 against Cholinesterase was found to be 41 µM; against Acetylcholinesterase [1] it was 5.75 µM.

In the case of `COc1ccc(CC(=O)Nc2ncc(-c3ccc(OCCCCCN4CCCC4)cc3)s2)cc1OC`, the half-maximal inhibitory concentration (IC50) is 9.85 µM against Cholinesterase and 3.34 µM against Acetylcholinesterase [1].

Take `COc1ccc(CC(=O)Nc2ncc(-c3ccc(OCCCCN4CCCCC4)cc3)s2)cc1OC`: the IC50 at Cholinesterase worked out at 49.2 µM; against Acetylcholinesterase [1], 0.95 µM. Further, the Ratio IC50 in experiment [3] came to 52.

Regarding `CCN(C)C(=O)Oc1cccc([C@H](C)N(C)C)c1` [RIVASTIGMINE], the 50% inhibitory concentration (IC50) at Cholinesterase turned out to be 6.27 µM.

As to `C/C=C1\[C@H]2C=C(C)C[C@]1(N)c1ccc(=O)[nH]c1C2` [HUPERZINE A], at Cholinesterase, the IC50 is above 10000 µM.

On to `COc1ccc(CC(=O)Nc2ncc(-c3ccc(OCCCCNC4CCN(Cc5ccccc5)CC4)cc3)s2)cc1OC`, for which the values for the IC50 against Cholinesterase and on Acetylcholinesterase [1] were 7.23 µM and 4.24 µM, respectively.

Take `COc1ccc(CCC(=O)Nc2nc(-c3cc4ccccc4oc3=O)cs2)cc1OC`: the IC50 against Acetylcholinesterase [5] amounted to 0.74 µM. This counts as sub-micromolar.
